We go through 15 compounds from patent publication US4093617A, “3,5,7-Trisubstituted pyrazolo[1,5-a]pyrimidines” (ICN Pharmaceuticals, Inc., priority 1976, dated 1978).

SMILES strings stand for the structures. “And” between values parts separate entries of the source, which are not always exact repeats. Equal entries are not always repeated. Where two headings read alike, the source gives them in different places.

Series [1] relates to male Sprague-Dawley rats. The series can be described thus: Antianxiety activity: stimulation of drinking activity of the rat in a passive avoidance behavioral paradigm. Format: in vivo. The following applies: for minimal effective dose: read-out: Dose wherein the first statistically behavioral difference (p<0.05 or less) from the control group occurs; for ED50: read-out: ED50 (dose producing 50% of maximum effect). As for the experimental part: In Tables V and VI the antianxiety activity of the listed compounds is measured as a function of the compounds ability to stimulate drinking activity of the rat in a passive avoidance behavioral paradigm. For these tests male Sprague-Dawley rats weighing 175 to 200 grams were water deprived for 48 hr. and placed in environmental chambers in which water was available with a punishment contingency. Each accumulated 3 sec. of contact with the drinking tube caused a constant current source (1.2 mA DC) to be applied to the drinking tube for 2 sec. Test sessions were 5 min. in duration, commencing with delivery of the first shock. Twelve rats were treated orally 1 hr. or intraperitoneally 30 min. prior to testing. The tests are scored based on the number of shocks accepted by the treated animals at a specific dose and were compared to twelve saline control animals tested on the same day.
In Table V the activity is expressed as an ED50. The ED50 is the dose of the compound in mg/kg producing 50% of maximum effect and is shown for both oral (p.o.) and interperitoneal (i.p.) routes of administration.
In Table VI the activity is expressed as the dose (i.p.) wherein the first statistically behavioral difference (p<0.05 or less) from the control group occurs. Included for comparison are the commonly prescribed antianxiety drugs, chlordiazepoxide and diazepam.

Series [2] has as its system male Swiss-Webster mice. Kind of series: Potentiation of the depressant effects of sodium barbital, loss of the righting reflex in the mouse. Format: in vivo. As for the experimental part: This dose of barbital sodium (100 mg/kg) was then injected i.p. in a group of ten mice. Fifteen min. later the mice were injected i.p. with the dose of compound to be tested. […] Mice were tested at 15 min. intervals for one hour after injection of test compound. Responses were recorded on an all-or-none basis; loss of righting reflex for 5 min. or longer was the effective criteria.

The subject of series [3] is 3',5'-Cyclic AMP Phosphodiesterase (PDE). Kind of series: Inhibition of 3',5'-cyclic AMP phosphodiesterase (PDE) isolated from rabbit kidney, low affinity (Fraction I, high Km). Format: biochemical. To be noted: for IC50: cAMP approx. 5 × 10^-4 M.
Series [4] shares this test system. Kind of series: Inhibition of 3',5'-cyclic AMP phosphodiesterase (PDE) isolated from rabbit lung, low affinity (Fraction I, high Km). Format: biochemical. The following applies: for IC50: cAMP approx. 5 × 10^-4 M.
In series [5] the test system is 3',5'-Cyclic-AMP phosphodiesterase (PDE). The series can be described thus: Inhibition of PDE from rabbit lung, high affinity (Fraction II, low Km). Format: biochemical. The following applies: cAMP 1.6 × 10^-7 M, relative to theophylline.
Series [6] shares this test system. Kind of series: Inhibition of PDE from beef heart, high affinity (Fraction II, low Km). The following applies: cAMP 1.6 × 10^-7 M, relative to theophylline. Format: biochemical.
Series [7] in a line: in vivo. To be noted: po. The method, then: For this test male Swiss-Webster mice weighing 18 to 20 grams were food deprived 18 hours prior to the experiment. […] Drugs were given orally in 20 ml/kg of 1% CMC. Ethanol (5 gm/kg p.o.) was given 30 minutes after drug injection. Immediately after treatment animals were placed in individual clear plastic containers.
The righting reflex was recorded as being present when the animal would voluntarily roll to its side when placed on its back. Animals were tested for righting reflex every 15 minutes.

The subject of series [8] is phosphodiesterase. The following applies: cited from earlier work.
The test system of series [9] is central nevous system. The following applies: in vivo; cited from earlier work.
Series [10] concerns histamine-induced bronchospasm. To be noted: F. L. Rose et al, J. Chem. Soc.; cited from earlier work.
Setting [11] is: i.p., 15 min after sodium barbital 100 mg/kg i.p.
[12] abbreviates: ip, 0.5 h, i.p., 30 min prior to testing.

In the case of `CN1C(=O)CN=C(c2ccccc2)c2cc(Cl)ccc21` [Diazepam, diazepam, reference compound], the minimal effective dose in [1] (ip, 0.5 h) amounted to 20 mg/kg. Besides, in series [2] (setting [11]), the “Dose of compound which produced loss of righting reflex in 50% of treated animals” value is on record as 0.5 ± 0.8 mg/kg.
For the compound `Cc1cc(C)n2ncc(Cl)c2n1` [II, 3-Chloro-5,7-dimethyl pyrazolo[1,5-a]pyrimidine], the “α (relative inhibitory activity as compared with theophylline)” value in series [3] was determined as 1.33; in [4], 3.1. Moreover, the IC50 turned out to be 240 µM in series [3] (read-out: I50) and 210 µM in series [4] (read-out: I50). In addition, the “α Lung” value in series [5] is listed as 2.2. Further, in series [6], the “α Heart” value is 1.7. The ED50 in series [1] (setting [12]) stood at 2.4 ± 4.3 mg/kg; in [1] (po, 1 hr prior to testing), 7.8 ± 4.5 mg/kg. Besides, the minimal effective dose in series [1] (ip, 0.5 h, i.p.) was determined as 10 mg/kg. Further, the “Dose of compound which produced loss of righting reflex in 50% of treated animals” value in series [2] (mouse, in vivo, ip) is reported as 60.9 ± 20.8 mg/kg. Also, the NOAEL in [7] (mouse) was 200 mg/kg.
As to `CCCc1cc(C)nc2c(Br)cnn12` [XV, 3-Bromo-5-methyl-7-n-propylpyrazolo[1,5-a]pyrimidine], the “α Lung” value in series [5] is 7.5. In addition, the “α Heart” value in series [6] turned out to be 6.5.
Consider `Cc1cc(C)n2ncc(I)c2n1` [III, 5,7-Dimethyl 3-iodo pyrazolo[1,5-a]pyrimidine], for which the “α (relative inhibitory activity as compared with theophylline)” value in [3] was 1.23; in [4], 3.5. The IC50 in series [3] (read-out: I50) amounted to 130 µM; in series [4] (read-out: I50), 210 µM. For the same compound, the “α Lung” value in [5] worked out at 3.5. For the same compound, the “α Heart” value in series [6] turned out to be 1.5. The ED50 in [1] (setting [12]) came to 10.1 ± 6.8 mg/kg; in [1] (po, 1 hr prior to testing), 95.9 ± 11.7 mg/kg. The minimal effective dose in series [1] (ip, 0.5 h, i.p.) came to 20 mg/kg. In [2] (mouse, in vivo, ip), the “Dose of compound which produced loss of righting reflex in 50% of treated animals” value was found to be 142.8 ± 10.1 mg/kg. The compound also displayed an NOAEL in series [7] (mouse) of 200 mg/kg.
`Cc1cc(C)n2ncc(F)c2n1` [IV, 5,7-Dimethyl 3-fluoro pyrazolo[1,5-a]pyrimidine]: the ED50 is 40.7 ± 11.9 mg/kg in series [1] (setting [12]) and 76.2 ± 10.8 mg/kg in series [1] (po, 1 hr prior to testing). Further, the minimal effective dose in [1] (ip, 0.5 h, i.p.) turned out to be 40 mg/kg. In addition, the “Dose of compound which produced loss of righting reflex in 50% of treated animals” value in series [2] (mouse, in vivo, ip) turned out to be 148.5 ± 4.5 mg/kg. Besides, the NOAEL in [7] (mouse) came to 100 mg/kg.
Regarding `Cc1cc(C)n2nccc2n1` [H, 5,7-dimethyl pyrazolo[1,5-a]pyrimidine, reference compound], the results for the “α (relative inhibitory activity as compared with theophylline)” value in series [3] and in [4] were 0.20 and 0.32, respectively. The IC50 in series [3] (read-out: I50) was determined as 800 µM; in series [4] (read-out: I50) it was 2000 µM. Besides, the ED50 is 20.9 ± 4.6 mg/kg in series [1] (setting [12]) and 43.6 ± 6.1 mg/kg in [1] (po, 1 hr prior to testing). Further, the minimal effective dose in series [1] (ip, 0.5 h, i.p.) came out at 40 mg/kg. For the same compound, in series [2] (mouse, in vivo, ip), the “Dose of compound which produced loss of righting reflex in 50% of treated animals” value came out at 118.8 ± 15.7 mg/kg. In [7] (mouse), this compound gave an NOAEL of 300 mg/kg.
Take `Cn1c(=O)c2[nH]cnc2n(C)c1=O` [theophylline]: the IC50 in series [3] (theophylline reference run of each compound line, read-out: I50 (theophylline)) is 160 µM and 220 µM and 320 µM. Besides, the IC50 in series [4] (theophylline reference run of each compound line, read-out: I50 (Theophylline)) is 640 µM and 740 µM. Moreover, in [8], the “Selectivity of phosphodiesterase inhibition” value is on record as “does not selectively inhibit phosphodiesterase”. Further, in [9], the Cardiovascular effects result was “rapid beating” and the “Central nervous system effect” value was “gives general stimulation to the central nevous system”.
Consider `Cc1cc(C)n2ncc(Br)c2n1` [Example I, 3-Bromo-5,7-dimethyl pyrazolo[1,5-a]pyrimidine], for which the results for the “α (relative inhibitory activity as compared with theophylline)” value in series [3] and in series [4] were 2.20 and 2.4, respectively. Moreover, the IC50 in series [3] (read-out: I50) is 100 µM; in series [4] (read-out: I50) it was 270 µM. Moreover, the “α Lung” value in [5] was 0.7. Besides, in [6], the “α Heart” value is 1.7. Also, the ED50 stood at 10.5 ± 0.8 mg/kg in [1] (setting [12]) and 9.5 ± 3.5 mg/kg in series [1] (po, 1 hr prior to testing). In addition, the minimal effective dose in series [1] (ip, 0.5 h, i.p.) came to 10 mg/kg. In addition, the “Dose of compound which produced loss of righting reflex in 50% of treated animals” value in series [2] (mouse, in vivo, ip) came out at 61.9 ± 12.1 mg/kg. In series [7] (mouse), the NOAEL amounted to 400 mg/kg.
On to `CCc1cc(C)nc2c(Br)cnn12` [XIV, 3-Bromo-7-ethyl-5-methylpyrazolo[1,5-a]pyrimidine], for which the “α Lung” value in series [5] worked out at 7.5. Moreover, the “α Heart” value in [6] is 4.0.
Regarding `CNC1=Nc2ccc(Cl)cc2C(c2ccccc2)=[N+]([O-])C1` [Chlordiazepoxide, chlordiazepoxide, reference compound], the minimal effective dose in series [1] (ip, 0.5 h) turned out to be 10 mg/kg. Besides, the “Dose of compound which produced loss of righting reflex in 50% of treated animals” value in series [2] (setting [11]) was 6.4 ± 0.4 mg/kg. In addition, the NOAEL in series [7] (in vivo) is 4 mg/kg.
`CCCc1nc(C)cc2nc(N)nn12` [COMPOUND 1]: the “α (relative inhibitory activity as compared with theophylline)” value in [3] came to 0.14. The IC50 in series [3] (read-out: I50) worked out at 1600 µM. Also, in [10], the “Protection from histamine-induced bronchospasm” value was “capable of protecting animals from histamine-induced bronchospasm”.
`CCCc1cc(CCC)n2ncc(Br)c2n1` [XVII, 3-Bromo-5,7-di-n-propylpyrazolo[1,5-a]pyrimidine]: the “α Lung” value in series [5] is 5.5. The “α Heart” value in [6] is reported as 3.0.
On to `CCc1cc(CC)n2ncc(Br)c2n1` [XVI, 3-Bromo-5,7-diethylpyrazolo[1,5-a]pyrimidine], for which the “α Lung” value in series [5] came to 7.4. For the same compound, the “α Heart” value in series [6] stood at 6.0.
As to `CCOC(=O)c1cnn2c(C)cc(C)nc12` [COOC2 H5], the “α (relative inhibitory activity as compared with theophylline)” value in series [3] is 0.22. Besides, the IC50 in series [3] (read-out: I50) came to 1000 µM.
Take `CCCc1nc(C)cn2c(N)nnc12` [compound 2]: the “Protection from histamine-induced bronchospasm” value in series [10] is listed as “capable of protecting animals from histamine-induced bronchospasm”.

The ED50 is the midpoint of the dose-response relation. In general, NOAEL refers to the highest dose or exposure tested at which no adverse effect was seen.
